# Like-named read-outs stand apart in the source and are kept apart here.
# What was measured:
# Test in all cases: MIC, in vitro antibacterial activity (standard strains)
# K. pneumoniae 1-220S = assay type: cell-based, Klebsiella pneumoniae; settings: Klebsiella pneumoniae, 1220S; 10^6 cells/ml; Gram -; read-out: MIC
# P. aeruginosa IID 1210 = assay type: cell-based, Pseudomonas aeruginosa; settings: Pseudomonas aeruginosa, IID1210; 10^6 cells/ml; Gram -; read-out: MIC
# E. coli ATCC 10536 = assay type: cell-based, Escherichia coli; settings: Escherichia coli, ATCC10536; 10^6 cells/ml; Gram -; read-out: MIC
# [1] = system: Bacillus subtilis PCI 219; assay type: cell-based; settings: Bacillus subtilis, PCI219; 10^6 cells/ml; Gram +; read-out: MIC
# B. fragilis 25285 = assay type: cell-based, Bacteroides fragilis; settings: Bacteroides fragilis, 25285; 10^6 cells/ml; Gram -; read-out: MIC
# C. ramosum = assay type: cell-based; settings: Thomasclavelia ramosa; 10^6 cells/ml; Gram +; read-out: MIC
# [2] = system: Proteus vulgaris IFO 3167; assay type: cell-based; settings: Proteus vulgaris, IFO3167
# [3] = system: Salmonella enteritidis IID 604; assay type: cell-based; settings: Salmonella enterica; 10^6 cells/ml; Gram -; read-out: MIC
# [4] = system: Clostridium difficile I-E; assay type: cell-based; settings: Clostridioides difficile; 10^6 cells/ml; Gram +
# [5] = system: Escherichia coli NIHJ JC-2; assay type: cell-based; settings: Escherichia coli, NIHJJC2; 10^6 cells/ml; Gram -; read-out: MIC
# S. epidermidis IID 866 = assay type: cell-based; settings: Staphylococcus epidermidis, IID866; 10^6 cells/ml; Gram +; read-out: MIC
# [6] = system: Streptococcus pyogenes (S-8); assay type: cell-based; settings: Streptococcus pyogenes; 10^6 cells/ml; Gram +; read-out: MIC
# [7] = system: B. thetaiotaomicron (0661); assay type: cell-based; settings: Bacteroides thetaiotaomicron; 10^6 cells/ml; Gram -; read-out: MIC
# Pst. micros UPI 5464-1 = assay type: cell-based; settings: Parvimonas micra, UPI54641; 10^6 cells/ml; Gram +; read-out: MIC
# [8] = system: Klebsiella pneumoniae KY(GN)6445; assay type: cell-based; settings: Klebsiella pneumoniae
# [9] = system: Pseudomonas aeruginosa V-1; assay type: cell-based; settings: Pseudomonas aeruginosa, V1
# E. faecalis IID 682 = assay type: cell-based; settings: Enterococcus faecalis, IID682; 10^6 cells/ml; Gram +; read-out: MIC
# F. varium KYA 8501 = assay type: cell-based; settings: Fusobacterium varium, KYA8501; 10^6 cells/ml; Gram -; read-out: MIC
# [10] = system: S. aureus IID 670 (Terajima); assay type: cell-based, Staphylococcus aureus; settings: Staphylococcus aureus, IID670; 10^6 cells/ml; Gram +; read-out: MIC
# [11] = system: Veillonella parvula KYA 10790; assay type: cell-based; settings: Veillonella parvula, KYA10790; 10^6 cells/ml; Gram -; read-out: MIC
# P. maltophilia GIFU 2491 = assay type: cell-based; settings: Stenotrophomonas maltophilia, GIFU2491
# S. aureus Smith = assay type: cell-based, Staphylococcus aureus; settings: Staphylococcus aureus; 10^6 cells/ml; Gram +; read-out: MIC
# [12] = system: Bacteroides fragilis GM 7000; assay type: cell-based; settings: Bacteroides fragilis, GM7000; 10^6 cells/ml; Gram -; read-out: MIC
# S. pneumoniae IID 552 = assay type: cell-based; settings: Streptococcus pneumoniae, IID552; 10^6 cells/ml; Gram +; read-out: MIC
# P. mirabilis IID 994 = assay type: cell-based; settings: Proteus mirabilis, IID994; 10^6 cells/ml; Gram -; read-out: MIC
# [13] = system: Citrobacter freundii IID 976; assay type: cell-based; settings: Citrobacter freundii, IID976
# [14] = system: Fusobacterium mortiferum 4249; assay type: cell-based; settings: Fusobacterium mortiferum, 4249; 10^6 cells/ml; Gram -; read-out: MIC
# [15] = system: Morganella morganii IID 602; assay type: cell-based; settings: Morganella morganii, IID602; 10^6 cells/ml; Gram -; read-out: MIC
# B. vulgatus KYA 29327 = assay type: cell-based; settings: Phocaeicola vulgatus, KYA29327; 10^6 cells/ml; Gram -; read-out: MIC
# S. pyogenes IID 692 = assay type: cell-based, Streptococcus pyogenes; settings: Streptococcus pyogenes, IID692; 10^6 cells/ml; Gram +; read-out: MIC
# B. distasonis 8503 = assay type: cell-based; settings: Parabacteroides distasonis, 8503; 10^6 cells/ml; Gram -; read-out: MIC
# [16] = system: Peptostreptococcus anaerobius KYA 27337; assay type: cell-based; settings: Peptostreptococcus anaerobius, KYA27337; 10^6 cells/ml; Gram +; read-out: MIC
# [17] = 10^6 cells/ml, Gram -, read-out: MIC
SMILES,MIC (K. pneumoniae 1-220S),MIC (P. aeruginosa IID 1210),MIC (E. coli ATCC 10536),MIC [1],MIC (B. fragilis 25285),MIC (C. ramosum),MIC [3],MIC [4],MIC [5],MIC (S. epidermidis IID 866),MIC [6],MIC [7],MIC (Pst. micros UPI 5464-1),MIC (E. faecalis IID 682),MIC (F. varium KYA 8501),MIC [10],MIC [11],MIC (S. aureus Smith),MIC [12],MIC (S. pneumoniae IID 552),other results
"C[C@H]1CN(c2c(F)cc3c(=O)c(C(=O)O)cn(CCF)c3c2Cl)C[C@H]1N (relative stereo) [Example 27, 7-(cis-3-Amino-4-methyl-1-pyrrolidinyl)-8-chloro-6-fluoro-1-(2-fluoroethyl)-1,4-dihydro-4-oxo-3-quinolinecarboxylic acid]",0.2 µg/mL,6.25 µg/mL,0.05 µg/mL,0.1 µg/mL,1.56 µg/mL,25 µg/mL,0.1 µg/mL,6.25 µg/mL,0.05 µg/mL,0.2 µg/mL,0.78 µg/mL,3.13 µg/mL,0.39 µg/mL,0.78 µg/mL,6.25 µg/mL,0.39 µg/mL,0.39 µg/mL,0.2 µg/mL,1.56 µg/mL,0.78 µg/mL,"MIC [2, 17]: 0.05 µg/mL; MIC [8, 17]: 0.1 µg/mL; MIC [9]: 0.39 µg/mL; MIC (P. maltophilia GIFU 2491; [17]): 1.56 µg/mL; MIC (P. mirabilis IID 994): 0.1 µg/mL; MIC [13, 17]: 0.1 µg/mL; MIC [14]: 1.56 µg/mL; MIC [15]: 0.1 µg/mL; MIC (B. vulgatus KYA 29327): 3.13 µg/mL; MIC (S. pyogenes IID 692): 0.78 µg/mL; MIC (B. distasonis 8503): 6.25 µg/mL; MIC [16]: 1.56 µg/mL"
"CNCC1CN(c2c(F)cc3c(=O)c(C(=O)O)cn(C4CC4)c3c2F)CC1C (centres unmarked) [Example 13, 1-Cyclopropyl-6,8-difluoro-1,4-dihydro-7-(3-methylaminomethyl-4-methyl-1-pyrrolidinyl)-4-oxo-3-quinolinecarboxylic acid]",0.2 µg/mL,1.56 µg/mL,0.05 µg/mL,0.025 µg/mL,0.78 µg/mL,0.78 µg/mL,0.1 µg/mL,0.78 µg/mL,0.05 µg/mL,0.05 µg/mL,0.1 µg/mL,3.13 µg/mL,0.78 µg/mL,0.2 µg/mL,1.56 µg/mL,0.05 µg/mL,0.78 µg/mL,0.05 µg/mL,0.78 µg/mL,0.1 µg/mL,"MIC [2, 17]: 0.05 µg/mL; MIC [8, 17]: 0.05 µg/mL; MIC [9, 17]: 0.39 µg/mL; MIC (P. maltophilia GIFU 2491; [17]): 0.39 µg/mL; MIC (P. mirabilis IID 994): 0.2 µg/mL; MIC [13, 17]: 0.05 µg/mL; MIC [14]: 0.39 µg/mL; MIC [15]: 0.2 µg/mL; MIC (B. vulgatus KYA 29327): 1.56 µg/mL; MIC (S. pyogenes IID 692): 0.2 µg/mL; MIC (B. distasonis 8503): 3.13 µg/mL; MIC [16]: 0.2 µg/mL"
"C[C@@H]1CN(c2c(F)cc3c(=O)c(C(=O)O)cn(C4CC4)c3c2F)C[C@H]1N (relative stereo) [Example 18, 7-(trans-3-Amino-4-methyl-1-pyrrolidinyl)-1-cyclopropyl-6,8-difluoro-1,4-dihydro-4-oxo-3-quinolinecarboxylic acid]",0.025 µg/mL,0.78 µg/mL,0.05 µg/mL,0.025 µg/mL,0.2 µg/mL,0.78 µg/mL,0.025 µg/mL,1.56 µg/mL,0.0063 µg/mL,0.05 µg/mL,0.05 µg/mL,0.39 µg/mL,0.1 µg/mL,0.1 µg/mL,1.56 µg/mL,0.2 µg/mL,0.1 µg/mL,0.05 µg/mL,0.2 µg/mL,0.05 µg/mL,"MIC [2]: 0.0125 µg/mL; MIC [8]: 0.0125 µg/mL; MIC [9, 17]: 0.1 µg/mL; MIC (P. maltophilia GIFU 2491): 0.05 µg/mL; MIC (P. mirabilis IID 994): 0.025 µg/mL; MIC [13]: 0.0125 µg/mL; MIC [14]: 0.2 µg/mL; MIC [15]: 0.05 µg/mL; MIC (B. vulgatus KYA 29327): 0.39 µg/mL; MIC (S. pyogenes IID 692): 0.1 µg/mL; MIC (B. distasonis 8503): 0.39 µg/mL; MIC [16]: 0.2 µg/mL"
"C[C@@H]1CN(c2c(F)cc3c(=O)c(C(=O)O)cn(C4CC4)c3c2Br)C[C@H]1N (relative stereo) [Example 32, 7-(trans-3-Amino-4-methyl-1-pyrrolidinyl)-8-bromo-1-cyclopropyl-6-fluoro-1,4-dihydro-4-oxo-3-quinolinecarboxylic acid]",0.05 µg/mL,0.78 µg/mL,0.0125 µg/mL,0.0125 µg/mL,0.1 µg/mL,0.78 µg/mL,0.05 µg/mL,0.78 µg/mL,0.0063 µg/mL,0.05 µg/mL,0.1 µg/mL,0.2 µg/mL,0.1 µg/mL,0.2 µg/mL,0.78 µg/mL,0.05 µg/mL,0.1 µg/mL,0.025 µg/mL,0.1 µg/mL,0.1 µg/mL,"MIC [2, 17]: 0.0125 µg/mL; MIC [8, 17]: 0.025 µg/mL; MIC [9]: 0.2 µg/mL; MIC (P. maltophilia GIFU 2491; [17]): 0.05 µg/mL; MIC (P. mirabilis IID 994): 0.05 µg/mL; MIC [13, 17]: 0.025 µg/mL; MIC [14]: 0.2 µg/mL; MIC [15]: 0.05 µg/mL; MIC (B. vulgatus KYA 29327): 0.1 µg/mL; MIC (S. pyogenes IID 692): 0.2 µg/mL; MIC (B. distasonis 8503): 0.2 µg/mL; MIC [16]: 0.2 µg/mL"
